Where a name gives a salt, the structure may show the parent alone.

The text below walks through data of patent US9440967B2, “1H-pyrrolo [2, 3 -B] pyridine derivatives and their use as radical quenchers” (Arizona Board of Regents on Behalf of Arizona State …, priority 2012, dated 2016).

This experiment deals with CEM cells. Nature of the experiment: Reactive oxygen species (ROS) assay, DCFH-DA flow cytometry, glutathione depleted with diethyl maleate. It counts as cell-based, Human. To be noted: CEM cells pretreated 16 h with 1, 2.5 and 5 μM compound, then 5 mM DEM 50 min, FIG. 1; for protection against ROS production (DCF fluorescence): compared with α-tocopherol. The procedure: FIG. 1. Representative flow cytometric histograms overlay showing ROS production in CEM cells. Following pretreatment with the indicated compounds (1, 2.5 and 5 μM) for 16 h, the cells were treated with 5 mM diethyl maleate (DEM) for 50 min to deplete glutathione. The cells were washed in phosphate-buffered saline, and suspended in phosphate-buffered saline containing 20 mM glucose. Cells were loaded with 10 μM dichlorodihydrofluoresceindiacetate (DCFH-DA) for 20 min, and the green fluorescence (DCF) was measured by flow cytometry using the FL1-H channel. […] A total of 10000 events were recorded for each sample and analyzed with the CellQuest software (BD Biosciences). Increased DCF fluorescence, a measure of intracellular oxidation and ROS production, was determined by a shift in DCF fluorescence to the right on the x-axis of the FACS histogram. […] Data are expressed as the mean±SEM (n=3). α-TOH is α-tocopherol.
Cellular ROS production can be monitored using 2′,7′-dichlorodihydrofluorescein diacetate (DCFH-DA) (LeBel et al. (1992) Chem. Res. Toxicol. 5, 227-231) (Molecular Probes, Eugene, Oreg., USA), a membrane permeable and oxidant-sensitive fluorescent dye. DCFH-DA is a non-fluorescent derivative of fluorescein that emits fluorescence after being oxidized by hydrogen peroxide and other ROS. The emitted fluorescence is directly proportional to the concentration of hydrogen peroxide. DCFH-DA is nonionic and nonpolar and is easily taken up by cells. Once inside the cell, DCFH-DA is hydrolyzed by cellular esterases to non-fluorescent DCFH which traps the dye in the cell. In the presence of ROS including hydrogen peroxide, DCFH is oxidized to the highly fluorescent compound dichlorofluorescein (DCF). The intracellular DCF fluorescence is used as an index of cellular ROS production.
Cellular oxidative stress was induced by pharmacological depletion of glutathione (GSH) using the chemical diethylmaleate (DEM). ROS production was assessed by monitoring DCF fluorescence. Leukemic CEM cells (ATCC®, catalogue number CRL-2264) were cultured in RPMI (GIBCO, Grand island, NY, USA) with 10% FCS, 2 mM glutamine (HyClone, South Logan, Utah, USA) and 1% penicillin-streptomycin mix antibiotics (Cellgro, Manassas, Va., USA) supplements. CEM cells (5×10^5 cell/mL) were plated (1 mL) in 24-well plate and treated with the invention compounds (final concentration 1, 2.5, and 5 μM), and incubated at 37° C., 5% CO2 for 16 hours. The compounds tested were prepared by first making stock solutions (2.5 mM) in dimethylsulfoxide (DMSO). Cells were treated with 5 mM DEM for 50 minutes and collected by centrifugation at 300×g for 3 min and then washed twice with Hanks' Balanced Salt Solution (HSSB) buffer (Sigma, St. Louis, Mo. USA). Cells were re-suspended in HSSB buffer+20 mM glucose and incubated at 37° C. in the dark for 20 min with 10 μM DCFH-DA. Cells were collected by centrifugation at 300×g for 3 min and then washed twice with HSSB buffer. The samples were analyzed immediately by flow cytometry (Becton-Dickinson FACS Caliber), (Cell Quest software, BD Biosciences) using 488 nm excitation laser and FL1-H channel 538 nm emission filter. In each analysis, 10,000 events were recorded after cell debris were electronically gated out. Results obtained were verified by repeating experiments N=3 independent experiments. Authentic hydrogen peroxide was used as a positive control.

As to `CCCCCCCCCCc1nc2c(c(C)c1O)CCN2C` [Compound 1b, 1,4-Dimethyl-6-decyl-2,3-dihydro-1H-pyrrolo[2,3-b]pyridin-5-ol trifluoro acetic acid salt], the “intensity of DCF fluorescence” value is “significant decrease in the intensity of DCF fluorescence in a dose-dependent manner” and the “protection against ROS production (DCF fluorescence)” value is listed as “significantly better protection than α-tocopherol”.

Take `CCCCCCCCCCc1nc2c(c(C)c1OC(C)=O)CCN2C` [Compound 2b, 1,4-Dimethyl-6-decyl-2,3-dihydro-1H-pyrrolo[2,3-b]pyridin-5-yl acetate]: the “intensity of DCF fluorescence” value is listed as “significant decrease in the intensity of DCF fluorescence in a dose-dependent manner” and the “protection against ROS production (DCF fluorescence)” value is given as “significantly better protection than α-tocopherol”.
